Earlier results in patent publication US20110288064A1, “METHODS FOR TREATING DISORDERS ASSOCIATED WITH […] IN A MAMMAL” (priority 2005, published 2011).
“Also recorded” adds a separate entry of the source. Read-outs that look alike come from different tables or passages of the source.

How the values were obtained:
[1] = animal model for homozygous FH, for example at 25 mg/day
[2] = patients, 25 mg/day monotherapy
[3] = hoFH patients, ezetimibe 10 mg/day added to maximal statin regimen (atorvastatin or simvastatin 80 mg/day)
[4] = clinical studies

## O=C(NC1CCN(CCCCC2(C(=O)NCC(F)(F)F)c3ccccc3-c3ccccc32)CC1)c1ccccc1-c1ccc(C(F)(F)F)cc1 [BMS-201038, N-(2,2,2-Trifluorethyl)-9-[4-[4-[[[4′-(trifluoromethyl)[1,1′biphenyl]-2-Yl]carbonyl]amino]-1-piperidinyl]butyl]9H-fluorene-9-carboxamide]
[1]
  plasma cholesterol levels: effectively reduced plasma cholesterol levels in a dose dependent manner
[2]
  adverse events: gastrointestinal disturbances, abnormalities in liver function, and hepatic steatosis; also recorded: gastrointestinal disorders, abnormalities in liver function and/or hepatic steatosis

## O=C1[C@H](CC[C@H](O)c2ccc(F)cc2)[C@@H](c2ccc(O)cc2)N1c1ccc(F)cc1 [ezetimibe]
[3]
  total reduction of LDL-C levels: 27%

## Cc1cc(C)c2c3ccccc3n(Cc3ccc([C@@H](C(=O)N[C@H](CO)c4ccccc4)C4CCCC4)cc3)c2n1 [implitapide, (2S)-2-cyclopentyl-2-[4-[(2,4-dimethyl-9H-pyrido[2,3-b]indol-9-yl)methyl]phenyl]-N-[(1S)-2-hydroxy-1-phenylethyl]ethanamide]
[4]; 80 mg/day or greater
  therapeutic efficacy: therapeutically effective
[4]; 80 mg/day or greater (80 mg/day, 160 mg/day)
  adverse events: gastrointestinal disturbances, abnormalities in liver function, and hepatic steatosis; also recorded: gastrointestinal disorders, abnormalities in liver function and/or hepatic steatosis
